Measurements from the supplement of paper PMC10331698.
± gives the standard deviation of the averaged measurements.

Legend:
Experiment in all cases: level (log10 ratio to DMSO vehicle control); higher = higher biomarker level / cell amount than vehicle control
[1] = compound: O=C(O)C(F)(OC(F)(F)C(F)(F)C(F)(F)F)C(F)(F)F [Ammonium perfluoro-2-methyl-3-oxahexanoate] (in Water)
Procedure: (§1)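 BioMAP Diversity Plus panel of 12 human primary cell co-culture systems (3C, 4H, LPS, SAg, BT, BF4T, BE3C, CASM3C, HDF3CGF, KF3CT, MyoF, Mphg). Compounds were added 1 h before stimulation and left for 24 h (MyoF 48 h; BT 72 h for soluble read-outs or 6 d for IgG). Biomarkers were read by ELISA, cytotoxicity by SRB, PBMC viability and proliferation by Alamar Blue. Each well value was divided by the mean of 8 DMSO control wells on the same plate and log10 transformed; duplicate blinded samples were tested at 4 concentrations.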

[2] = compound: O=C(O)C(F)(OC(F)(F)C(F)(OC(F)(F)C(F)(OC(F)(F)C(F)(F)C(F)(F)F)C(F)(F)F)C(F)(F)F)C(F)(F)F [Perfluoro-(2,5,8-trimethyl-3,6,9-trioxadodecanoic)acid] (in DMSO)
Procedure: as §1

[3] = compound: OCC(F)(F)C(F)(F)C(F)(F)C(F)F [1H,1H,5H-Perfluoropentanol] (in DMSO)
Procedure: as §1

[4] = compound: O=C(O)CCC(F)(C(F)(F)F)C(F)(F)F [4,4-bis(Trifluoromethyl)-4-fluoropropanoic acid] (in DMSO)
Procedure: as §1

[5] = compound: OCC(F)(F)OC(F)(F)C(F)(F)OC(F)(F)C(F)(F)OC(F)(F)CO [1H,1H,11H,11H-Perfluorotetraethylene glycol] (in DMSO)
Procedure: as §1

[6] = compound: O=C(O)C(F)(F)OC(F)(F)C(F)(F)OC(F)(F)C(F)(F)OC(F)(F)C(F)(F)C(F)(F)C(F)(F)F [Perfluoro-3,6,9-trioxatridecanoic acid] (in DMSO); details: 6700 nM
Procedure: as §1

Perfluorononanoic acid = compound: O=C(O)C(F)(F)C(F)(F)C(F)(F)C(F)(F)C(F)(F)C(F)(F)C(F)(F)C(F)(F)F [Perfluorononanoic acid] (in DMSO)
Procedure: as §1

[7] = compound: C=C(C)C(=O)OCCC(F)(F)C(F)(F)C(F)(F)C(F)(F)C(F)(F)C(F)(F)C(F)(F)C(F)(F)F [8:2 Fluorotelomer methacrylate] (in DMSO)
Procedure: as §1

Row | Test System | level (log10) ([1]; 6700 nM) | level (log10) ([1]; 20000 nM) | level (log10) ([1]; 60000 nM) | level (log10) ([2]; 1100 nM) | level (log10) ([2]; 3300 nM) | level (log10) ([2]; 10000 nM) | level (log10) ([3]; 6700 nM) | level (log10) ([3]; 20000 nM) | level (log10) ([3]; 60000 nM) | level (log10) ([4]; 6700 nM) | level (log10) ([4]; 20000 nM) | level (log10) ([4]; 60000 nM) | level (log10) ([5]; 6700 nM) | level (log10) ([5]; 20000 nM) | level (log10) ([5]; 60000 nM) | level (log10) [6] | level (log10) (Perfluorononanoic acid; 6700 nM) | level (log10) (Perfluorononanoic acid; 20000 nM) | level (log10) ([7]; 6700 nM) | level (log10) ([7]; 20000 nM)
1 | 3C:CD62E/E-Selectin | 0.0025 ± 0.005 | 0.0105 ± 0.011 | 0.011 ± 0.011 | -0.0005 ± 0.016 | -0.0035 ± 0.005 | 0.019 ± 0.0071 | -0.018 ± 0.018 | -0.015 | 0.008 ± 0.0014 | -0.0065 ± 0.016 | -0.0165 ± 0.016 | -0.0085 ± 0.012 | -0.0145 ± 0.029 | -0.008 ± 0.038 | -0.0375 ± 0.036 | -0.0355 ± 0.0092 | -0.0195 ± 0.0078 | -0.013 ± 0.013 | -0.024 ± 0.0085 | -0.0225 ± 0.005
2 | HDF3CGF:Collagen III | -0.0055 ± 0.0064 | -0.015 ± 0.041 | -0.0705 ± 0.028 | -0.064 ± 0.072 | 0.014 ± 0.048 | 0.0695 ± 0.023 | -0.0215 ± 0.036 | -0.0135 ± 0.019 | 0.037 ± 0.027 | -0.005 ± 0.04 | -0.0495 ± 0.11 | -0.0455 ± 0.04 | -0.008 ± 0.092 | -0.087 ± 0.12 | -0.211 ± 0.12 | -0.236 ± 0.028 | -0.0705 ± 0.043 | -0.168 ± 0.02 | -0.032 ± 0.042 | -0.0325 ± 0.067
3 | BE3C:MMP-1 | 0.0325 ± 0.032 | 0.062 ± 0.038 | 0.136 ± 0.013 | -0.0135 ± 0.00071 | -0.0175 ± 0.018 | 0.0135 ± 0.022 | -0.014 ± 0.011 | 0.029 ± 0.024 | 0.023 ± 0.03 | 0.0065 ± 0.035 | 0.0105 ± 0.059 | 0.006 ± 0.045 | -0.001 ± 0.0057 | 0.022 | 0.0915 ± 0.057 | -0.471 ± 0.023 | 0.05 ± 0.059 | 0.221 ± 0.035 | 0.0135 ± 0.012 | -0.003 ± 0.0057
4 | BE3C:uPA | 0.033 ± 0.027 | 0.0315 ± 0.016 | 0.0245 ± 0.012 | 0.0025 ± 0.0064 | -0.011 ± 0.0014 | -0.0025 ± 0.019 | -0.0105 ± 0.016 | 0.001 ± 0.011 | 0.002 ± 0.041 | -0.01 ± 0.038 | -0.021 ± 0.031 | -0.0355 ± 0.052 | -0.0105 ± 0.011 | 0.0055 ± 0.013 | -0.0075 ± 0.0021 | -0.349 ± 0.005 | -0.0445 ± 0.08 | -0.0195 ± 0.076 | -0.0145 ± 0.012 | -0.0145 ± 0.059
5 | lMphg:sIL-10 | -0.36 ± 0.035 | -0.328 ± 0.018 | -0.467 ± 0.13 | -0.0195 ± 0.0021 | -0.0265 ± 0.084 | -0.05 ± 0.072 | -0.0455 ± 0.069 | -0.012 ± 0.025 | -0.014 ± 0.027 | -0.0325 ± 0.005 | -0.062 ± 0.075 | -0.003 ± 0.12 | -0.0385 ± 0.056 | -0.0965 ± 0.066 | -0.306 ± 0.025 | -0.0585 ± 0.00071 | -0.0035 ± 0.026 | -0.093 ± 0.044 | -0.107 ± 0.049 | -0.116 ± 0.0021
6 | CASM3C:CCL2/MCP-1 | -0.0235 ± 0.021 | -0.034 ± 0.035 | -0.013 ± 0.013 | 0 ± 0.0042 | -0.008 ± 0.0028 | 0.0055 ± 0.005 | -0.0115 ± 0.012 | -0.0105 ± 0.013 | -0.0015 ± 0.011 | -0.016 ± 0.013 | -0.016 ± 0.0085 | 0.0165 ± 0.039 | 0.0125 ± 0.012 | -0.007 ± 0.017 | -0.004 ± 0.017 | -0.0045 ± 0.023 | -0.0295 ± 0.049 | -0.0085 ± 0.054 | -0.011 ± 0.0099 | 0.0025 ± 0.037
7 | KF3CT:SRB | -0.004 | -0.005 ± 0.0014 | -0.0015 ± 0.005 | 0.0005 ± 0.011 | 0.0025 ± 0.016 | -0.008 ± 0.0014 | 0.003 ± 0.0028 | 0.0025 ± 0.0035 | 0.0025 ± 0.0035 | -0.003 ± 0.0042 | 0.004 ± 0.0071 | 0.008 ± 0.0099 | -0.003 ± 0.014 | 0.003 ± 0.0071 | -0.012 ± 0.013 | -0.0355 ± 0.0035 | -0.011 ± 0.0057 | -0.0215 ± 0.0021 | -0.003 | 0.004 ± 0.0042
8 | HDF3CGF:CXCL11/I-TAC | 0.002 ± 0.0057 | -0.0045 ± 0.019 | 0.002 ± 0.0099 | -0.0015 ± 0.011 | 0.003 ± 0.014 | -0.0265 ± 0.033 | -0.0425 ± 0.028 | -0.023 ± 0.093 | 0.004 ± 0.051 | -0.035 ± 0.079 | -0.0465 ± 0.074 | -0.0745 ± 0.12 | -0.0395 ± 0.053 | -0.139 ± 0.077 | -0.319 ± 0.13 | -0.149 ± 0.013 | 0.018 ± 0.013 | 0.0285 ± 0.018 | -0.0105 ± 0.025 | -0.0715 ± 0.013
9 | 3C:CD54/ICAM-1 | -0.0255 ± 0.0092 | 0.0065 ± 0.00071 | 0.0055 ± 0.011 | 0.007 ± 0.02 | -0.0005 ± 0.00071 | 0.0185 ± 0.0064 | -0.028 ± 0.0085 | -0.003 ± 0.0099 | 0.0125 ± 0.023 | -0.01 ± 0.017 | -0.022 ± 0.024 | -0.0085 ± 0.011 | 0.0015 ± 0.00071 | -0.009 ± 0.0071 | 0.007 | 0.0005 ± 0.021 | -0.028 ± 0.0014 | -0.023 ± 0.0099 | -0.0125 ± 0.016 | -0.0095 ± 0.025
10 | MyoF:CXCL8/IL-8 | -0.0355 ± 0.032 | -0.0385 ± 0.011 | -0.045 ± 0.011 | 0.0475 ± 0.077 | 0.005 ± 0.0028 | -0.006 ± 0.016 | -0.018 ± 0.076 | 0.0485 ± 0.064 | 0.07 ± 0.13 | 0.0035 ± 0.0092 | 0.0085 ± 0.0078 | 0.009 ± 0.0099 | -0.0185 ± 0.011 | -0.0215 ± 0.00071 | -0.013 ± 0.018 | 0.056 ± 0.0057 | -0.03 ± 0.079 | 0.0445 ± 0.044 | 0.0095 ± 0.025 | 0.004 ± 0.0085
11 | CASM3C:CXCL9/MIG | 0.039 ± 0.038 | 0.05 ± 0.0071 | 0.0595 ± 0.015 | 0.0055 ± 0.0021 | -0.0065 ± 0.0092 | 0.0075 ± 0.005 | 0.021 ± 0.03 | 0.0095 ± 0.037 | 0.0005 ± 0.093 | -0.0035 ± 0.005 | -0.0165 ± 0.00071 | 0.018 ± 0.047 | 0.0135 ± 0.028 | 0.0135 ± 0.013 | 0.0415 ± 0.00071 | -0.01 ± 0.0014 | 0.014 ± 0.028 | 0.005 ± 0.057 | -0.017 ± 0.011 | 0.018 ± 0.042
12 | CASM3C:CD87/uPAR | -0.031 ± 0.076 | 0.0075 ± 0.011 | 0.014 ± 0.027 | 0.0175 ± 0.022 | 0.0015 ± 0.018 | 0.0265 ± 0.0035 | 0.0065 ± 0.021 | 0.025 ± 0.017 | 0.005 ± 0.021 | 0.027 ± 0.0028 | 0.0265 ± 0.013 | 0.03 ± 0.024 | -0.019 ± 0.024 | -0.026 ± 0.034 | -0.011 ± 0.018 | 0.0205 ± 0.018 | -0.02 ± 0.0071 | 0.023 | -0.006 ± 0.05 | -0.022 ± 0.033
13 | 3C:CD106/VCAM-1 | -0.0065 ± 0.0035 | -0.0245 ± 0.0035 | -0.0155 ± 0.00071 | -0.0075 ± 0.022 | -0.0055 ± 0.028 | -0.0005 ± 0.028 | -0.0245 ± 0.0078 | -0.012 | 0.0075 ± 0.0035 | -0.0195 ± 0.018 | -0.0215 ± 0.03 | -0.0085 ± 0.023 | -0.01 ± 0.0057 | -0.015 ± 0.0071 | -0.004 ± 0.011 | -0.0335 ± 0.023 | -0.0205 ± 0.016 | -0.0195 ± 0.023 | -0.0205 ± 0.019 | -0.0445 ± 0.015
14 | CASM3C:Proliferation | -0.07 ± 0.085 | -0.095 ± 0.02 | -0.104 ± 0.065 | 0.011 ± 0.0014 | -0.008 ± 0.016 | -0.018 ± 0.023 | -0.018 ± 0.055 | 0.0175 ± 0.07 | -0.0245 ± 0.03 | 0.002 ± 0.013 | -0.012 ± 0.0099 | -0.003 ± 0.023 | -0.039 ± 0.079 | -0.039 ± 0.062 | -0.12 ± 0.03 | -0.012 ± 0.016 | 0.0505 ± 0.059 | 0.021 ± 0.052 | -0.01 ± 0.017 | -0.0245 ± 0.035
